{"source": "paper PMC8351955", "about": "“Targeting Mycobacterium tuberculosis response to environmental cues for the development of effective antitubercular drugs” (PLoS Biology, 2021)", "key": {"[1]": {"system": "CDC1551(rv1405c′::GFP) reporter Mtb strain", "assay": "microbe, parasite or virus in culture", "format": "cell-based, Mycobacterium tuberculosis", "conditions": "for NPA - rv1405c'::GFP, average: Fig 1D"}, "[2]": {"system": "WT Mtb (Erdman) in primary murine BMDMs", "assay": "Primary murine bone marrow-derived macrophage infection, CFU", "format": "cell-based, Mycobacterium tuberculosis", "conditions": "for CFU/ml in BMDMs, average: Fig 1I; for CFU/ml: Fig. 2E, 10 µM"}}, "note": "“And” between values parts separate entries of the source, which are not always exact repeats. Equal values may be shown once.", "data": [{"smiles": "CCSc1ncc(CN2CCN(c3nc4ccccc4o3)CC2)cn1", "note": "[C6, 2-(4-((2-(ethylthio)pyrimidin-5-yl)methyl)piperazin-1-yl)benzo[d]oxazole]", "values": [{"measurement": "NPA - rv1405c'::GFP, average", "setting": "[1]; 0.0390625 µM", "value": 91.7667, "unit": "%"}, {"measurement": "NPA - rv1405c'::GFP, average", "setting": "[1]; 0.078125 µM", "value": 104.333, "unit": "%"}, {"measurement": "NPA - rv1405c'::GFP, average", "setting": "[1]; 0.15625 µM", "value": 97.8333, "unit": "%"}, {"measurement": "NPA - rv1405c'::GFP, average", "setting": "[1]; 0.3125 µM", "value": 95.1667, "unit": "%"}, {"measurement": "NPA - rv1405c'::GFP, average", "setting": "[1]; 0.625 µM", "value": 93.7333, "unit": "%"}, {"measurement": "NPA - rv1405c'::GFP, average", "setting": "[1]; 1.25 µM", "value": 103.333, "unit": "%"}, {"measurement": "NPA - rv1405c'::GFP, average", "setting": "[1]; 2.5 µM", "value": 124.667, "unit": "%"}, {"measurement": "NPA - rv1405c'::GFP, average", "setting": "[1]; 5 µM", "value": 141, "unit": "%"}, {"measurement": "NPA - rv1405c'::GFP, average", "setting": "[1]; 10 µM", "value": 137.333, "unit": "%"}, {"measurement": "NPA - rv1405c'::GFP, average", "setting": "[1]; 20 µM", "value": 161.5, "unit": "%"}, {"measurement": "activity at 10 µM", "setting": "[1]; Mycobacterium tuberculosis, read-out: rv1405c'::GFP secondary assay NPA% at 10 µM compound", "value": "137 ± 15", "unit": "%"}, {"measurement": "activity at 20 µM", "setting": "[1]; Mycobacterium tuberculosis, read-out: rv1405c'::GFP secondary assay NPA% at 20 µM compound", "value": "162 ± 3.5", "unit": "%"}, {"measurement": "Effect on bacterial load / Mtb growth in primary murine BMDMs", "setting": "[2]; 10 μM, 8-day infection time course, vs DMSO", "value": "significant decrease in bacterial load"}, {"measurement": "CFU/ml in BMDMs, average", "setting": "[2]; 10 μM, day 2", "value": 153500, "unit": "CFU/ml"}, {"measurement": "CFU/ml in BMDMs, average", "setting": "[2]; 10 μM, day 4", "value": 188500, "unit": "CFU/ml"}, {"measurement": "CFU/ml in BMDMs, average", "setting": "[2]; 10 μM, day 6", "value": 283000, "unit": "CFU/ml"}, {"measurement": "CFU/ml in BMDMs, average", "setting": "[2]; 10 μM, day 8", "value": 322500, "unit": "CFU/ml"}, {"measurement": "CFU/ml", "setting": "[2]; day 2, average", "value": 426000, "unit": "CFU/ml"}, {"measurement": "CFU/ml", "setting": "[2]; day 2, individual replicates", "value": "406000 CFU/ml and 418000 CFU/ml and 454000 CFU/ml"}, {"measurement": "CFU/ml", "setting": "[2]; day 4, average", "value": 573333, "unit": "CFU/ml"}, {"measurement": "CFU/ml", "setting": "[2]; day 4, individual replicates", "value": "580000 CFU/ml and 640000 CFU/ml and 500000 CFU/ml"}, {"measurement": "CFU/ml", "setting": "[2]; day 6, average", "value": 746667, "unit": "CFU/ml"}, {"measurement": "CFU/ml", "setting": "[2]; day 6, individual replicates", "value": "700000 CFU/ml and 660000 CFU/ml and 880000 CFU/ml"}, {"measurement": "CFU/ml", "setting": "[2]; day 8, average", "value": 1020000, "unit": "CFU/ml"}, {"measurement": "CFU/ml", "setting": "[2]; day 8, individual replicates", "value": "880000 CFU/ml and 1100000 CFU/ml and 1080000 CFU/ml"}]}]}
